# Entries after “also recorded” stand apart in the source; their conditions may differ. Bridge positions count the residues as written; N and C are the ends. Square brackets hold non-standard residues; d marks the D form. * marks the point of attachment. 2Nal = N[C@@H](Cc1ccc2ccccc2c1)C(=O)O; Benzoyl(4-F) = O=C(c1ccc(F)cc1)*; Cit = NC(=O)NCCC[C@H](N)C(=O)O
# Key:
# [1] = system: partial thickness burns in a rat model; assay: Rat partial thickness burn wound healing, histological evaluation; assay type: in vivo
# Description: In order to examine the different phases in burn wound healing and the involvement of the chemokine CXCL12 and the receptor CXCR4, the following experiments were done. Wistar female rats were anesthetized and their back was shaved. 1 cm^2 burns were inflicted with a metal rod that has been immersed in a hot boiling water bath and laid on the posterior part of the hip and back for 2-3 seconds. All experiments were approved by the Animal care committee of the Medical Center, Tel-Aviv and the Hebrew University. Heterozygous mice bearing a GFP reporter knocked-in allele to the CX3CR1 locus (Qu et al. 2004) were maintained at the Weizmann Institute of Science Animal Facility, and burns were inflicted as described above. Each group of 3 animals was injected subcutaneously to the burned area with PBS. Animals were sacrificed at the indicated times after burn infliction: 0, 6 hr, 1 day, 3 days, 5 days and 7 days. Histopathological diagnosis was confirmed for each specimen. Histological sections were prepared from formalin-fixed, paraffin-embedded tissues stained with Hematoxylin and Eosin. Evaluation to the level of epithelialization and white blood cells (WBC) in the epidermis and dermis was made to each section by a scale from 1-5. The sections were scored by two independent pathologists.
# In other experiments, treated rats were injected subcutaneously to the burned area with one of the following: PBS, mAb against Rat CXCR4 (12G5 clone, R&D Systems Inc., Minneapolis, Minn.), or the small peptide CXCR4 inhibitor 4F-benzoyl-TN14003 (4F-benzoyl-Aig-Arg-Nal-Cys-Tyr-Cit-Lys-DLys-Pro-Tyr-Arg-Cit-Cys-Arg-NH2, SEQ ID NO:52; Tamamura et al., 2003). All animals were sacrificed 120 hr after injury. Histopathological diagnosis was confirmed for each specimen. Histological sections were prepared from formalin-fixed, paraffin-embedded tissues stained with Hematoxylin and Eosin. Evaluation to the level of epithelialization and white blood cells (WBC) in the dermis was made to each section by a scale from 1-5. The grading scale was as follows: 0=No inflammation or epithelialization; 1=Low inflammation or epithelialization; 2=Low to moderate inflammation or epithelialization; 3 Moderate inflammation or epithelialization; 4=High inflammation or epithelialization; 5=Very high inflammation or epithelialization. Each section was evaluated by two independent pathologists.
# Next, the inhibitory effect of CXCR4 antagonists on burn wound healing was examined (FIG. 9). Inhibitors were injected subcutaneously to the burned area at 0, 1 day, and 3 days (20 μg per injection), and animals were sacrificed 5 days post burn. […] A small but not significant decrease in the PMN population in the dermis was observed (FIG. 10). […]
# [2] = biological target: T1, CXCR4 (Rattus norvegicus, UniProt O08565); assay: Transwell migration of rat lymphocytes in response to CXCL12; assay type: cell-based; details: CXCL12 100 ng/ml; antibody against CXCR4 10 μg/ml; FIG. 8
# T1 construct: endogenous in cells; host or cells: rat peripheral blood mononuclear cells / lymphocytes (Ficoll-Histopaque isolated)
# T1 sequence (O08565 whole entry): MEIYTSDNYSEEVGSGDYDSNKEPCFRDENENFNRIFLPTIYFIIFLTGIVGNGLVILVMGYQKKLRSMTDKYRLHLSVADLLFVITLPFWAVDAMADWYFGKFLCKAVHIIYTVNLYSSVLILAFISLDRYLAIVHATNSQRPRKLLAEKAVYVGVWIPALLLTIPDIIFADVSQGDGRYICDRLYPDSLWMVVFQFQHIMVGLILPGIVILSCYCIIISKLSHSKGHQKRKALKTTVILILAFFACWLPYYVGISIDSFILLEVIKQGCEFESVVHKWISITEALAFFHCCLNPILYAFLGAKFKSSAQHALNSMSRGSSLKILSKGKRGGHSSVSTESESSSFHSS
# Procedure: Rat peripheral blood cells were loaded on Ficoll-Histopaque gradient (Histopaque-1077-1, Sigma) and the peripheral blood mononuclear cells (PBMC) were isolated. Rat PBMC migration was assessed in 24-well chemotaxis chambers (6.5-mm diameter, 5-μm pore polycarbonate transwell culture insert; Costar, Cambridge, Mass.). 600 μl RPMI 1640 with 1% BSA (migration buffer) with or without 100 ng/ml of CXCL12α (Peprotech) were added to the lower wells, and 2×10^5 cells suspended in 100 μl of RPMI 1640 with 1% BSA were added to the upper wells. After three hours of incubation, the membrane was removed and migrating cells were counted for 1 min using fluorescence activated cell sorting (FACS).
# In order to evaluate the effect of the CXCR4 antagonist 4F-benzoyl-TN14003 and neutralizing antibodies to the receptor on the recovery of rat skin, the inventors first tested their ability to inhibit the migration of rat lymphocytes in response to CXCL12. Migration assay was carried out on total rat lymphocytes separated by Ficoll gradient and their migrating ability to medium containing CXCL12 was examined. Lymphocytes were incubated with the CXCR4 antagonist 4F-benzoyl-TN14003, or an antibody against CXCR4 (10 μg/ml).
# [3] = rat burn, 20 μg per injection s.c. at 0, 1 day, 3 days, 5 days post burn, FIG. 11
substance,measurement,setting,value
4F-benzoyl-Arg-Arg-Nal-Cys-Tyr-Cit-Lys-DLys-Pro-Tyr-Arg-Cit-Cys-Arg-NH2 ({Benzoyl(4-F)}-RR[2Nal]CY[Cit]K[dK]PYR[Cit]CR-NH2; disulfide 4-13 (inferred)) [4F-benzoyl-TN14003],accumulation of PMN cell population in the epidermis,[1]; [3],not affected
same,eosinophil accumulation in the dermis,[1]; [3],reduced eosinophilia; also recorded: strong and significant inhibition
same,epithelialization,"[1]; rat burn, 20 μg per injection subcutaneously to the burned area at 0, 1 day, 3 days, sacrificed 5 days post burn, FIG. 9",improved epithelialization; also recorded: increased epithelialization
same,"potency in improving wound healing in vivo, peptide antagonist versus neutralizing mAb",[1]; rat partial thickness burns,more potent than the neutralizing mAb
same,effect on the migration of rat lymphocytes in response to CXCL12,[2],strong inhibitory effect

# From patent publication US9034814B2, “CXCR4 antagonists for wound healing and re-epithelialization” (Hadasit Medical Research Services and Development Ltd., priority 2005, dated 2015)
